Square brackets hold non-standard residues; d marks the D form. Peptide text beside a SMILES is read from it. * marks the point of attachment. dNMePhg = CN[C@@H](C(=O)O)c1ccccc1; dHpg = N[C@@H](C(=O)O)c1ccc(O)cc1; dChg = N[C@@H](C(=O)O)C1CCCCC1; dPhg = N[C@@H](C(=O)O)c1ccccc1; Boc = CC(C)(C)OC(=O)*
Assays:
[1] = target: T1, bovine thrombin (Bos taurus, UniProt P00735); experiment: Inhibition of thrombin amidase activity (chromogenic substrate), bovine thrombin; assay type: biochemical; details: apparent equilibrium constant inhibitor-thrombin, mean over a range of concentrations
T1 construct: 25 μl of bovine thrombin solution (0.21 mg/ml of thrombostat powder); purchased thrombostat powder
Experimental: The data in the table were obtained in an assay in which thrombin hydrolyzes the chromogenic substrate, N-benzoyl-D-phenylalanyl-L-valyl-L-arginyl-p-nitroanilide.
The assay was carried out in 50 μl buffer (0.03M Tris, 0.15M NaCl, pH 7.4) with 25 μl of bovine thrombin solution (0.21 mg/ml of thrombostat powder in 0.06M Tris, 0.3M NaCl, pH 7.4) and 150 μl of an aqueous solution of the chromogenic substrate at a concentration of 0.25 mg/ml. Solutions of test compound (25 μl) at various concentrations were added. […] Standard curves were constructed by plotting free thrombin concentration against hydrolysis rate. […] The amount of free inhibitor in each assay was calculated by subtracting the number of moles of bound thrombin from the number of moles of added inhibitor (test compound).
Kass was calculated for a range of concentrations of compounds and the mean value is reported in units of liter per mole.

[2] = tested on: plasma coagulation (thromboplastin); experiment: Plasma coagulation assay: prothrombin time; assay type: biochemical
Experimental: The numerical values in the table are the concentrations of the test compounds (ng/ml) required to prolong coagulation by 2-fold in the three tests. The thrombin time evaluation was carried out in plasma and separately determined in a buffer system at pH 7.5.
(§1) The data presented in Table 2 were obtained using a CoaScreener instrument from Tecan, Inc. in the assay protocols listed below.
50 μl thromboplastin (Dade)

[3] = tested on: plasma coagulation (Actin, CaCl2); experiment: Plasma coagulation assay: APTT (activated partial thromboplastin time); assay type: biochemical
Experimental: (§2) The anticoagulant activity of the compounds of the invention has been determined in standard tests. The following Table 2 presents the data obtained with representative compounds of the invention in tests used to determine prothrombin time, thrombin time and activated partial thromboplastin time (APTT). The numerical values in the table are the concentrations of the test compounds (ng/ml) required to prolong coagulation by 2-fold in the three tests. The thrombin time evaluation was carried out in plasma and separately determined in a buffer system at pH 7.5.
as §1

[4] = target: T1, bovine thrombin; experiment: Plasma coagulation assay: thrombin time; assay type: biochemical
Experimental: as §2, §1
50 μl bovine thrombin (2 NIH

[5] = target: T1, bovine thrombin; experiment: Thrombin time in buffer (fibrinogen instead of plasma); assay type: biochemical; details: Buffer (pH 7.5)
Experimental: as §2, §1
In the Thrombin Time determined in pH 7.4 buffer fibrinogen was used instead of plasma.

[6] = tested on: arterial thrombosis in the carotid artery; experiment: Ferric chloride induced arterial thrombosis in the carotid artery of the rat; assay type: in vivo; details: infusion from 15 min before to 60 min after FeCl3, NA = Not active at 4 mg/kg/h or at 7 mg/kg/h, the highest doses tested
Experimental: The antithrombotic activity of representative compounds of the invention was determined in in vivo tests carried out in the rat. The test employed induced arterial thrombosis in the carotid artery of the rat and measured the infusion dose of test compound required to maintain blood flow for fifty minutes past the time of occlusion. The test was performed as follows.
Arterial thrombosis was induced in the rat by injury of the carotid artery. Topical application of a ferric chloride solution was used to injure the vessel. Male Sprague-Dawley rats (375-450 g) were anesthetized with xylazine (20 mg/kg, s.c.) followed by ketamine HCl (100 mg/kg, s.c.). Animals were laid on a water blanket in which the circulated water was maintained at 37° C. The carotid artery was approached through a midline cervical incision. Careful blunt dissection was used to expose and isolate the vessel from the carotid sheath. A silk suture was pulled underneath the artery to lift the vessel to provide clearance to insert a thermocouple underneath it. […] Small forceps were used to dip discs (3 mm dia) of Whatman No. 1 filter paper into a FeCl3 solution (35%). The discs were cut to equal size using sharpened stainless steel tubing (3 mm i.d.) chucked in a drill press. A saturated disc was placed on each carotid artery above the thermocouple. The time between FeCl3 application and the time at which temperature decreased abruptly was recorded as time to occlusion (TTO) of the vessel. The average time required for both vessels to occlude was used to represent TTO for each animal.
Test compounds were dissolved in isotonic saline. […]
The association between vessel occlusion and the abrupt temperature decrease was established by simultaneously recording the temperature and blood flow on the same recorder. […] Baseline temperature and flow velocity (determined with a Directional Pulsed Doppler Flowmeter, Model 545-C, University of Iowa Bioengineering) were recorded before application of 35% ferric chloride. […]

Compound	Thrombin Amidase Kass × 10^6 [1]	Thrombin Time: concentration required to prolong coagulation by 2fold [4] [ng/mL]	Thrombin Time: concentration required to prolong coagulation by 2fold [5] [ng/mL]	Prothrombin Time: concentration required to prolong coagulation by 2fold [2] [ng/mL]	APTT: concentration required to prolong coagulation by 2fold [3] [ng/mL]	ED50: infusion dose required to maintain blood flow for 50 min [6] [mg/kg/h]
CC[C@@H](C(=O)N1CCC[C@H]1C(=O)N[C@H](C=O)CCCNC(=N)N)c1ccccc1 [(R)-α-Ethylphenylacetyl]	7 × 10^6 1/mole	115	–	–	–	–
CO[C@@H](C(=O)N1CCC[C@H]1C(=O)N[C@H](C=O)CCCNC(=N)N)c1ccccc1 [(R)-α-Methoxyphenylacetyl]	4 × 10^6 1/mole	139	173	–	> 909	–
COc1ccc([C@@H](NC(C)=O)C(=O)N2CCC[C@H]2C(=O)N[C@H](C=O)CCCNC(=N)N)cc1 [Acetyl-D-(4-methoxy)phenylglycyl]	15 × 10^6 1/mole	460	–	900	2600	–
CC(C)(C)OC(=O)N[C@@H](C(=O)N1CCC[C@H]1C(=O)N[C@H](C=O)CCCNC(=N)N)C1CCCCC1 [Boc-D-cyclohexylglycyl] (Boc-[dChg]-Pro-Arg-aldehyde)	120 × 10^6 1/mole	79	60	522	748	–
CC(C)(C)OC(=O)N[C@@H](C(=O)N1CCC[C@H]1C(=O)N[C@H](C=O)CCCNC(=N)N)c1ccccc1.CC(C)(C)OC(=O)N[C@@H](C(=O)N1CCC[C@H]1C(=O)N[C@H](C=O)CCCNC(=N)N)c1ccccc1.O=S(=O)(O)O [Boc-D-phenylglycyl (sulfate salt), N-Boc-D-Phenylglycyl-L-Prolyl-L-Arginine aldehyde (Boc-D-Phg-Pro-Arg-H) hemisulfate] (Boc-[dPhg]-Pro-Arg-aldehyde)	107 × 10^6 1/mole	–	–	–	–	–
N=C(N)NCCC[C@@H](C=O)NC(=O)[C@@H]1CCCN1C(=O)[C@H]1CC2CCCCC2CN1.O=S(=O)(O)O (stereo partly drawn) [D-1,2,3,4,6,7,8-Perhydroisoquinolin-3-carbonyl-L-prolyl-L-arginal (sulfate)]	25 × 10^6 1/mole	–	–	–	–	–
N=C(N)NCCC[C@@H](C=O)NC(=O)[C@@H]1CCCN1C(=O)[C@@H]1NCCc2ccccc21.O=S(=O)(O)O [D-1,2,3,4-Tetrahydroisoquinolin-1-carbonyl-L-Prolyl-L-Arginine Aldehyde Sulfate]	113 × 10^6 1/mole	–	–	–	–	–
Cl.N=C(N)NCCC[C@@H](C=O)NC(=O)[C@@H]1CCCN1C(=O)[C@H]1Cc2ccccc2C(=O)N1 [D-1,2,3,4-tetrahydroisoquinolin-1-keto-3-carbonyl-L-prolyl-L-arginine aldehyde (hydrochloride)]	6 × 10^6 1/mole	–	–	–	–	–
N^α -acetyl-1-aminocyclohexane-1-carbonyl-L-prolyl-L-arginine Aldehyde (Hydrochloride)	0.2 × 10^6 1/mole	–	–	–	–	–
N^α -ethylcarbamate-1-amino-1-cyclohexane-carbonyl-L-prolyl-L-arginine Aldehyde (Hydrochloride)	1.5 × 10^6 1/mole	–	–	–	–	–

Now from value to compound, other results behind:

Thrombin Amidase Kass × 10^6 [1]	Thrombin Time: concentration required to prolong coagulation by 2fold [4] [ng/mL]	Thrombin Time: concentration required to prolong coagulation by 2fold [5] [ng/mL]	Compound	Prothrombin Time: concentration required to prolong coagulation by 2fold [2] [ng/mL]	APTT: concentration required to prolong coagulation by 2fold [3] [ng/mL]	ED50: infusion dose required to maintain blood flow for 50 min [6] [mg/kg/h]
18 × 10^6 1/mole	320	112	CC(C)(C)OC(=O)NC(C(=O)N1CCC[C@H]1C(=O)N[C@H](C=O)CCCNC(=N)N)c1cccc2ccccc12 (mixture of isomers) [Boc-DL-1-naphthylglycyl]	1136	2272	5.5
22 × 10^6 1/mole	230	142	CC(=O)O.CC(=O)O.CC(C)(C)OC(=O)N[C@@H](C(=O)N1CCC[C@H]1C(=O)N[C@H](C=O)CCCNC(=N)N)c1ccc2ccccc2c1 [Boc-D-2-naphthylglycyl, N-Boc-D-2-naphthylglycyl-Pro-Arg-H diacetate]	1200	1200	–
14 × 10^6 1/mole	–	–	CC(C)(C)OC(=O)NC(C(=O)N1CCCC1C(=O)NC(C=O)CCCN=C(N)N)c1cccs1 [Boc-D-2-thienylglycyl]	–	–	–
115 × 10^6 1/mole	182	–	CC(=O)O.CC(=O)O.CC(C)(C)OC(=O)N[C@@H](C(=O)N1CCC[C@H]1C(=O)N[C@H](C=O)CCCNC(=N)N)c1ccc(O)cc1 [Boc-D-(4-hydroxy)phenylglycyl, N-Boc-D-(4-hydroxyphenylglycyl)-Pro-Arg-H diacetate] (Boc-[dHpg]-Pro-Arg-aldehyde)	1636	1091	–
75 × 10^6 1/mole	80	–	COc1ccc([C@@H](NC(=O)OC(C)(C)C)C(=O)N2CCC[C@H]2C(=O)N[C@H](C=O)CCCNC(=N)N)cc1 [Boc-D-(4-methoxy)phenylglycyl]	–	640	–
6 × 10^6 1/mole	460	466	COc1ccc2cc([C@@H](NC(=O)OC(C)(C)C)C(=O)N3CCC[C@H]3C(=O)N[C@H](C=O)CCCNC(=N)N)ccc2c1 [Boc-D-(6-methoxy)-2-naphthylglycyl]	35489	2239	–
44 × 10^6 1/mole	–	–	CC(C)(C)OC(=O)NC(C(=O)N1CCCC1C(=O)NC(C=O)CCCN=C(N)N)c1ccc(F)cc1 [Boc-D-Phg(4-Fluoro)]	–	–	–
21 × 10^6 1/mole	–	–	CC(C)(C)OC(=O)NC(Cc1ccccc1)C(=O)N1CCCC1C(=O)NC(C=O)CCCN=C(N)N [Boc-D-phenylalanyl, reference compound]	–	–	–
75 × 10^6 1/mole	91	–	N=C(N)NCCC[C@@H](C=O)NC(=O)[C@@H]1CCCN1C(=O)[C@H](N)c1ccccc1 [D-Phenylglycyl] (H-[dPhg]-Pro-Arg-aldehyde)	–	–	–
80 × 10^6 1/mole	92	67	CN[C@@H](C(=O)N1CCC[C@H]1C(=O)N[C@H](C=O)CCCNC(=N)N)c1ccccc1 [N^α -Methyl-D-phenylglycyl (sulfate), N-methyl-D-phenylglycyl-L-prolyl-L-arginine aldehyde] (H-[dNMePhg]-Pro-Arg-aldehyde)	899	> 909	–

— patent US5430023A, “Tripeptide antithrombotic agents” (Eli Lilly and Company, priority 1993, dated 1995)
